This is an account of results in publication PMC5007443, “TNIK inhibition abrogates colorectal cancer stemness” (Nature Communications, 2016).

Each structure is given as a SMILES string.

As a reminder, the inhibition is the change of the read-out against control, counted positive when it falls. Broadly, the IC50 is the concentration needed to halve the response being measured.

The target of assay [1] is T1, JAK3 (Homo sapiens, UniProt P52333).
T1 sequence (P52333 1-1124): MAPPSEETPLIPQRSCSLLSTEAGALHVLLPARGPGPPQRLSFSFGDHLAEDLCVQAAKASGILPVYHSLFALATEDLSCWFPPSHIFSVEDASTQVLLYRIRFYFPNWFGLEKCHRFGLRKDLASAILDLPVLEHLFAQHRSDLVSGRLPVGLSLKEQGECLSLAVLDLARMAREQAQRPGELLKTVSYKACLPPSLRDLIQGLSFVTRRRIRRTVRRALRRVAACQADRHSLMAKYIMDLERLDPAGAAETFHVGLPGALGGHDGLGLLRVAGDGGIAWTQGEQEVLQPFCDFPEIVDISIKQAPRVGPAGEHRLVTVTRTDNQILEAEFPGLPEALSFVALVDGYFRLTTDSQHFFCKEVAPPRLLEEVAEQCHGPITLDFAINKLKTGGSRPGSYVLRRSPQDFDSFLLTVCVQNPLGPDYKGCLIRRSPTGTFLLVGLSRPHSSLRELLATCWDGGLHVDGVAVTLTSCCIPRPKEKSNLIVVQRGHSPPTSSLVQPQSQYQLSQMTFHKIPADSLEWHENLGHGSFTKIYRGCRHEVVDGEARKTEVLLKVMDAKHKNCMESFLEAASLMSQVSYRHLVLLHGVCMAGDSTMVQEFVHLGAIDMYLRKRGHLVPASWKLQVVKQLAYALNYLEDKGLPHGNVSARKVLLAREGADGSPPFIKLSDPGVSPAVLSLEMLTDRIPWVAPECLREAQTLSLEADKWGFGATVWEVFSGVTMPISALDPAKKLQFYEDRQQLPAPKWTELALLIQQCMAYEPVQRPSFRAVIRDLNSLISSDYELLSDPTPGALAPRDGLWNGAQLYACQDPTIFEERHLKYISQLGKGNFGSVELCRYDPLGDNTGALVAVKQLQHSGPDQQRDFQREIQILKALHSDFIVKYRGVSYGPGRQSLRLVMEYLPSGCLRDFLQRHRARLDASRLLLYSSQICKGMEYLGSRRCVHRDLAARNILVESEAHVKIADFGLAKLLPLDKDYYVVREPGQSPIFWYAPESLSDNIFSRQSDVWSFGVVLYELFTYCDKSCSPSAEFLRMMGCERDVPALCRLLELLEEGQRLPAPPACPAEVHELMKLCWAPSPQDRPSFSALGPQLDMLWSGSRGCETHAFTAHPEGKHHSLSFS
The assay can be described thus: Kinase selectivity profiling, Janus kinase 3. Type of assay: biochemical. To be noted: 0.1 µM inhibitor, ATP at Km; for inhibition at 0.1 µM: read-out: Percentage inhibition of JAK3. Here is the method:
(§1) The selectivity of compounds against a panel of 50 human protein kinases was assessed using a non-radiometric assay.

Assay [2] has as its system HCT116 cells. The assay can be described thus: Drug sensitivity assay, ATP production, 2D culture. Type of assay: cell-based. To be noted: Homo sapiens, HCT-116; HCT116, 2D culture, 72 h; read-out: IC50, ATP production (cell growth). The procedure:
Cells were seeded at a density of 3,000 cells per well in 96-well plates. Twenty-four hours after seeding, the cells were exposed to serially diluted compounds (0.003, 0.01, 0.03, 0.1, 0.3, 1, 3 and 10 μM) and incubated for 72 h (Fig. 3a). Patient-derived colorectal cancer spheroids were dissociated into single cells with Accutase (Nacalai Tesque) and seeded at a density of 3,000 cells per well into Ultra-Low attachment multiwall 96-well plates (Corning; Fig. 6d). ATP was measured with a CellTiter-Glo Luminescent Cell Viability Assay kit (Promega). Experiments were performed in triplicate and repeated at least two times.

For assay [3], the target named is FGFR1 (Homo sapiens, UniProt P11362). Kind of assay: Kinase selectivity profiling, Fibroblast growth factor receptor 1. To be noted: read-out: Percentage inhibition of FGFR1. It counts as biochemical. Here is the method:
as §1

For assay [4], the target named is Erk2 (Homo sapiens, UniProt P28482). Kind of assay: Kinase selectivity profiling, Mitogen-activated protein kinase 1. Type of assay: biochemical. Conditions: read-out: Percentage inhibition of Erk2. Here is the method:
as §1

Assay [5] has as its target LCK (Homo sapiens, UniProt P06239). The assay can be described thus: Kinase selectivity profiling, Lymphocyte-specific protein tyrosine kinase. It counts as biochemical. Conditions: read-out: Percentage inhibition of LCK. The procedure: as §1
For assay [6], the target named is DAPK1 (Homo sapiens, UniProt P53355). Kind of assay: Kinase selectivity profiling, Death-associated protein kinase 1. It counts as biochemical. Conditions: read-out: Percentage inhibition of DAPK1. The procedure: as §1
Assay [7] concerns HCT116 cells. Kind of assay: Soft-agar colony-formation assay. Type of assay: cell-based. Conditions: Homo sapiens, HCT-116, 336 h; HCT116, 14 days. Here is the method: One milliliter of 0.33% agar (Lonza) in culture medium containing 1.5 × 10^4 cells was plated onto 1 ml of solidified base agar (0.5%) in each well of six-well clusters. The top agar layer was covered with culture medium containing serially diluted compounds. The medium was replaced every three days. Cell number was determined colorimetrically at 450–650 nm using the Cell Count Reagent SF (Nacalai Tesque). IC50 values were obtained by fitting a four-parameter dose–response curve to normalized data using GraphPad Prism version 5 (GraphPad software; Fig. 3b). Experiments were performed in triplicate and repeated at least two times.

In assay [8] the target is PAK2 (Homo sapiens, UniProt Q13177). Kind of assay: Kinase selectivity profiling, P21 protein (Cdc42/Rac)-activated kinase 2. To be noted: read-out: Percentage inhibition of PAK2. It counts as biochemical. Here is the method: as §1
For assay [9], the target named is IGF1R (Homo sapiens, UniProt P08069). Kind of assay: Kinase selectivity profiling, Insulin-like growth factor 1 receptor. Conditions: read-out: Percentage inhibition of IGF1R. It counts as biochemical. Here is the method: as §1
The subject of assay [10] is patient-derived colorectal cancer spheroids #6. Kind of assay: Limiting dilution analysis of sphere reformation, spheroids #6. Type of assay: cell-based, human. To be noted: spheroids #6, 3-day Treatment. Here is the method:
Spheroids were gently dissociated into single cells with the use of StemPro Accutase (Thermo Fisher Scientific), and 1,000, 100, 10 or 1 viable cells were seeded into each well of a 96-well U-bottom PrimeSurface plate (Supplementary Figs 10b and 12). Experiments were performed in triplicate and repeated at least two times.

Assay [11] addresses AurA (Homo sapiens, UniProt O14965). The assay can be described thus: Kinase selectivity profiling, Aurora kinase A. Conditions: read-out: Percentage inhibition of AurA. Type of assay: biochemical. The procedure: as §1
For assay [12], the system named is DLD-1 cells. Kind of assay: In vivo tumorigenicity of pretreated DLD-1 cells in NOD/ShiJic-scid mice. Set-up: species or system mouse. Conditions: DLD-1, short-term in vitro treatment. Here is the method:
After washing off the compounds, 10,000, 1,000, 100 or 10 viable cells in culture medium containing 50% Matrigel (BD Biosciences) were injected subcutaneously into the flanks of NOD/ShiJic-scid Jcl (6-week-old male) mice. The number of mice that developed tumours was counted, and the frequency of cells with tumour-forming capability was calculated using the ELDA software.

Chain of AurA (O14965 whole entry): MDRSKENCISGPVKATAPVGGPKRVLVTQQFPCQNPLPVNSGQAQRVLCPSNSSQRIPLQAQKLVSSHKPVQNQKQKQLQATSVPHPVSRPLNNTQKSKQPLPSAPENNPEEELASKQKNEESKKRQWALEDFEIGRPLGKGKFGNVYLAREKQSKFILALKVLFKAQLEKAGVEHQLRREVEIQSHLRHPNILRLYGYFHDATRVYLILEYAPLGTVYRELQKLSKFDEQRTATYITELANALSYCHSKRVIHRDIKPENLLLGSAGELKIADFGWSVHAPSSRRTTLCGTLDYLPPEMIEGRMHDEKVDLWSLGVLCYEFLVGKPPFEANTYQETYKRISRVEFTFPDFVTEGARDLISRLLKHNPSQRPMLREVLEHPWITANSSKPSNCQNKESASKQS
Chain of IGF1R (P08069 31-1367): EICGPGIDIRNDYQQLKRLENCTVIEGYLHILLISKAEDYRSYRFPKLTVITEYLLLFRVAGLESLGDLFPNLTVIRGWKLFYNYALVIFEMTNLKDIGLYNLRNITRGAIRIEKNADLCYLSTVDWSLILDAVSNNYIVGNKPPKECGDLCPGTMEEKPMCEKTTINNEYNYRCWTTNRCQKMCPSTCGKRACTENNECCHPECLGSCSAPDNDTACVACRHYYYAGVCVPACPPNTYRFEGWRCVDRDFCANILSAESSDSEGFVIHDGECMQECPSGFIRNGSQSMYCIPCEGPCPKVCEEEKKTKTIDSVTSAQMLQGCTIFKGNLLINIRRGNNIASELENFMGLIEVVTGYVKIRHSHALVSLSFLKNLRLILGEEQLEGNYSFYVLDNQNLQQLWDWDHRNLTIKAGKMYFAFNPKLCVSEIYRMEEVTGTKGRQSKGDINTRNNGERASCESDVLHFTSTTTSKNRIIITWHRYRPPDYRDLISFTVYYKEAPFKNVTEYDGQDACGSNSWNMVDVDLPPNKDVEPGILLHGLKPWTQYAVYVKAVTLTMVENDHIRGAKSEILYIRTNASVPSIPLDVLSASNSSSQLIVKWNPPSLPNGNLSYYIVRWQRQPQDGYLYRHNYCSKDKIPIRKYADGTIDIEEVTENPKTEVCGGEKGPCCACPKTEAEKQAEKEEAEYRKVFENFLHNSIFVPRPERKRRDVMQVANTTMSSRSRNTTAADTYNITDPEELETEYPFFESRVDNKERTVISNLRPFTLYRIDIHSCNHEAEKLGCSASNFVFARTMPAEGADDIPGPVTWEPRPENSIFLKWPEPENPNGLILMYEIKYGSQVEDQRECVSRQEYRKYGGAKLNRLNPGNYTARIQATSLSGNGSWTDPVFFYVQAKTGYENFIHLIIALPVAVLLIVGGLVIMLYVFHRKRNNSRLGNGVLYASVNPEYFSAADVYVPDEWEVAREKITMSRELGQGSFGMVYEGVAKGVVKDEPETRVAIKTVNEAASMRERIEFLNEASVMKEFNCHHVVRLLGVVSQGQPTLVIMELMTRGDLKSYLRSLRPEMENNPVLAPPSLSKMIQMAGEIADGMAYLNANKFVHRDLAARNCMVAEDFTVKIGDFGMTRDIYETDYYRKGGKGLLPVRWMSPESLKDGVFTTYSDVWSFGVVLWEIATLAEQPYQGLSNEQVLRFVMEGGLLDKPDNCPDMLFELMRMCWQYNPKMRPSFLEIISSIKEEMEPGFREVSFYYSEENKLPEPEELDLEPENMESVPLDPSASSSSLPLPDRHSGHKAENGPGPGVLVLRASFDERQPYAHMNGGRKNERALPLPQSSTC
Chain of PAK2 (Q13177 whole entry): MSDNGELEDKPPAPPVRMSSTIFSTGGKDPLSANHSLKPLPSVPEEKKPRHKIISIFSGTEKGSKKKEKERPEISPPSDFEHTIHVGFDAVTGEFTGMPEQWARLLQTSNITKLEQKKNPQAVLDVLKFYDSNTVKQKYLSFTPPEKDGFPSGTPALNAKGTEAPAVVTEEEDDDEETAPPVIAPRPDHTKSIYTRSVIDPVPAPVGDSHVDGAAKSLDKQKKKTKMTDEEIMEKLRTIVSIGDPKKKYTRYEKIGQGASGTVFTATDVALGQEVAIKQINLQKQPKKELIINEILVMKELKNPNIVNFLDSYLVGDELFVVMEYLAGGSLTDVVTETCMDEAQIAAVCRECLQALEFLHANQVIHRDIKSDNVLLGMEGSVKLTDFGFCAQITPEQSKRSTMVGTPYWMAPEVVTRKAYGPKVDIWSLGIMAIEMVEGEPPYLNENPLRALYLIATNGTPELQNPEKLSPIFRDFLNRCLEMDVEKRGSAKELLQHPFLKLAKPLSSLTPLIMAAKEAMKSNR
Chain of FGFR1 (P11362 22-822): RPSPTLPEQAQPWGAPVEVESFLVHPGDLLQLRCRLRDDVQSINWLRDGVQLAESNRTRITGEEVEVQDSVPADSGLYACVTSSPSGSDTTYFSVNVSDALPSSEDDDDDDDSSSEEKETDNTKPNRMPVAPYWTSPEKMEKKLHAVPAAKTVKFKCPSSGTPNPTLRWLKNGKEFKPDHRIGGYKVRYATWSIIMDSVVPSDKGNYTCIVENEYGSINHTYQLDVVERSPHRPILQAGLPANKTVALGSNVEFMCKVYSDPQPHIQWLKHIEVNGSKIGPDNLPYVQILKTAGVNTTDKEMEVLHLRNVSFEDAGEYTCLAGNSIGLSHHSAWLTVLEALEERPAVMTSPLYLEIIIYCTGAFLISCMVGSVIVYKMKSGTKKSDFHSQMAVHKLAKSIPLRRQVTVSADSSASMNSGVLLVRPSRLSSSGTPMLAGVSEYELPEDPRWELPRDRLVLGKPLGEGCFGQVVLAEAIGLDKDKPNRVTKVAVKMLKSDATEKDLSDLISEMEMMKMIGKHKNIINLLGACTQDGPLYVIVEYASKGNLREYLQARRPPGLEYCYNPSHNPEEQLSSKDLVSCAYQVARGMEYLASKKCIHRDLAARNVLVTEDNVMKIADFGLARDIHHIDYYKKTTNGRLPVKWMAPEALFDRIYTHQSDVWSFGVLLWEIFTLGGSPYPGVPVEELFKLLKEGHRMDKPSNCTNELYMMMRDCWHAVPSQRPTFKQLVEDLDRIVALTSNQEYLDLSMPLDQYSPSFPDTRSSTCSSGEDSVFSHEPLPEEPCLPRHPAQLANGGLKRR
Chain of Erk2 (P28482 whole entry): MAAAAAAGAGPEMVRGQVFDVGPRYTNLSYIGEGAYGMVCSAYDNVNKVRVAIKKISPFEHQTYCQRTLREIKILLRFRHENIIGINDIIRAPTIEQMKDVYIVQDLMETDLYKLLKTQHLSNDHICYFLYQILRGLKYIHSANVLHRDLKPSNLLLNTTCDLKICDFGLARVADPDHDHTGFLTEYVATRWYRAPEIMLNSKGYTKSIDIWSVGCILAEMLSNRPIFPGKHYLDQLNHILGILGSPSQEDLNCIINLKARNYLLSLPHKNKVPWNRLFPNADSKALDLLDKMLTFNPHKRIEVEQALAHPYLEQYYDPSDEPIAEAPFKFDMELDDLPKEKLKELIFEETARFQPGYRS
Chain of LCK (P06239 whole entry): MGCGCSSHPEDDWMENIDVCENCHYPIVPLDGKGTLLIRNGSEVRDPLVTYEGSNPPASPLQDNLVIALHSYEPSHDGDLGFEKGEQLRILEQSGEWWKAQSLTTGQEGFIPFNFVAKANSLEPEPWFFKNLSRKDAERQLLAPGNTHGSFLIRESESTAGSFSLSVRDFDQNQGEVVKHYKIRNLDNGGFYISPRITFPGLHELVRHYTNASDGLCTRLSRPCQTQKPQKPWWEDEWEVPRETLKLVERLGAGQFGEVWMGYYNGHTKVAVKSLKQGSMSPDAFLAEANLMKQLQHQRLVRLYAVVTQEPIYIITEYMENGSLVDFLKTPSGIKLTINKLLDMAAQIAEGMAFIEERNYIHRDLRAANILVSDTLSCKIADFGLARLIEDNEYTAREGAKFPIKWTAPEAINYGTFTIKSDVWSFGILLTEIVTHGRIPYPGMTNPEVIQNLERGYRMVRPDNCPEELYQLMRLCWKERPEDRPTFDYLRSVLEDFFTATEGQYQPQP

For `O[C@H]1CC[C@@H](Oc2cccc3cnc(Nc4ccc5nc[nH]c5c4)nc23)CC1` [NCB-0846, cis-4-(2-(3H-benzo[d]imidazol-5-ylamino)quinazolin-8-yloxy)cyclohexanol], the “Percentage inhibition of JAK3” value in assay [1] (0.1 µM) was determined as 96.3%. In addition, the inhibition at 0.1 µM is more than 80% in assay [1]; 32.5% in assay [3]; 0.7% in assay [4]; 23.6% in assay [5]; 3.7% in assay [6]; -7.8% in [8]. In addition, the inhibition at 0.1 µM came out at 10.7% in assay [9] and 41.4% in assay [11]. Also, the IC50 in [2] was determined as 360 nM; in assay [7], 190 nM. In addition, the Sphere-containing wells/total wells was 12/96 in assay [10] (0.1 μM, 1 cell per well); 77/96 in assay [10] (0.1 μM, 10 cells per well); 96/96 in assay [10] (0.1 μM, 100 cells per well); 96/96 in assay [10] (0.1 μM, 1000 cells per well); 3/96 in assay [10] (0.3 μM, 1 cell per well); 72/96 in assay [10] (0.3 μM, 10 cells per well). Also, the Sphere-containing wells/total wells in assay [10] (0.3 μM, 100 cells per well) is on record as 96/96; in assay [10] (0.3 μM, 1000 cells per well) it was 96/96; in assay [10] (1.0 μM, 1 cell per well), 2/96; in [10] (1.0 μM, 10 cells per well), 49/96; in assay [10] (1.0 μM, 100 cells per well) it was 94/96; in assay [10] (1.0 μM, 1000 cells per well) it was 96/96. Moreover, the tumour formation result in assay [12] is reported as “significantly reduced”.

`O[C@H]1CC[C@H](Oc2cccc3cnc(Nc4ccc5nc[nH]c5c4)nc23)CC1` [NCB-0970]: the inhibition at 0.1 µM in [1] was 85.4%; in assay [3], 14.4%; in [4] it was -2.1%; in assay [5], 6.8%; in assay [6], 4.7%; in assay [8], -17.4%. Moreover, the inhibition at 0.1 µM in assay [9] came to 1.2%; in assay [11], 36.5%. Moreover, the IC50 in [2] worked out at 2400 nM; in assay [7] it was 3850 nM. Further, the Sphere-containing wells/total wells in assay [10] (0.1 μM, 1 cell per well) is 8/96; in [10] (0.1 μM, 10 cells per well), 83/96; in assay [10] (0.1 μM, 100 cells per well), 96/96; in assay [10] (0.1 μM, 1000 cells per well), 96/96; in [10] (0.3 μM, 1 cell per well), 10/96; in assay [10] (0.3 μM, 10 cells per well), 87/96. Further, the Sphere-containing wells/total wells in [10] (0.3 μM, 100 cells per well) was 96/96; in assay [10] (0.3 μM, 1000 cells per well) it was 96/96; in assay [10] (1.0 μM, 1 cell per well) it was 1/96; in [10] (1.0 μM, 10 cells per well), 50/96; in assay [10] (1.0 μM, 100 cells per well), 96/96; in assay [10] (1.0 μM, 1000 cells per well) it was 96/96. The “Sphere-initiating cell frequency, Estimate” value in assay [10] (1.0 μM) is given as 1/15. Besides, in assay [12], the tumour formation result is “not”.
